Test results: patent US20100063077A1, “PYRIMIDINE DERIVATIVES FOR THE TREATMENT OF AMYLOID-RELATED DISEASES” (SENEXIS LIMITED, priority 2006, published 2010)
Like-named read-outs stand apart in the source and are kept apart here.

Experiments:
Aβ(1-42) = molecular target: T1, Aβ(1-42) (Homo sapiens, UniProt P05067); assay: Thioflavin T fluorimetric assay of Aβ(1-42) aggregation; type: biochemical; details: 10 μM Aβ(1-42); read-out: IC50, inhibiting Aβ(1-42) aggregation (thioflavin-T fluorimetric assay)
T1 construct: dissolving Aβ(1-42) HCl salt in hexafluoroisopropanol (HFIP)
Description: Aβ(1-42) was prepared for amyloid aggregation and toxicity assays by dissolving Aβ(1-42) HCl salt in hexafluoroisopropanol (HFIP), with brief sonication and vortexing. This solution of the Aβ(1-42) peptide in HIT was stored at 4° C.@2 mM. When required, an aliquot of this stock solution was freeze-dried and dissolved in DMSO to 200 times the required final assay concentration (e.g. 2 mM for a final assay concentration of 10 μM). A 20 mM stock solution of each test compound was prepared in DMSO, and aliquots of these solutions were used to prepare further stock solutions of each test compound in DMSO, ranging in concentration from 3 μM up to 10 mM. These stock solutions were prepared for use as and when required and stored at −20° C. (maximum of 3 freeze-thaw cycles). The 20 mM parent stock solutions were stored frozen at −20° C. The daughter plate is sealed with silver seal and incubated at 37° C. for 24 and 48 hours for the Thioflavin T assay (LeVine and Scholten 1999). The activity of compounds in inhibiting 10 μM Aβ(1-42) aggregation was assessed by using a thioflavin-T fluorimetric assay. At each timepoint, a 50 or 100 μl aliquot is taken from each well of the daughter plate and dispensed into a black 96 well plate. Equal volume (50 or 100 μl) Thioflavin T [40 μM] (in Glycine buffer [50 mM] —NaOH pH 8.5) is added to each well. The plate was shaken and fluorescence was recorded using the top reader setting (10×1 msec), using excitation and emission filters of 440 (±15) and 485 (±10) nm, respectively. Fluorescence readings from equivalent experiments were averaged and % amyloid formation was determined as follows: [formula] Activity of compounds in inhibiting 10 μM Aβ(1-42) aggregation using thioflavin-T fluorimetric assay

SH SY5Y cells = assay: Cell viability assay for amyloid toxicity using MTT reduction; type: cell-based; details: 10 μM Aβ(1-42), 24 h incubation, read-out: IC50, protecting SH SY5Y cells from a toxic insult of Aβ(1-42) (MTT reduction as measure of cell viability)
Description: Aβ(1-42) was prepared for amyloid aggregation and toxicity assays by dissolving Aβ(1-42) HCl salt in hexafluoroisopropanol (HFIP), with brief sonication and vortexing. This solution of the Aβ(1-42) peptide in HIT was stored at 4° C.@2 mM. When required, an aliquot of this stock solution was freeze-dried and dissolved in DMSO to 200 times the required final assay concentration (e.g. 2 mM for a final assay concentration of 10 μM).
A 20 mM stock solution of each test compound was prepared in DMSO, and aliquots of these solutions were used to prepare further stock solutions of each test compound in DMSO, ranging in concentration from 3 μM up to 10 mM. These stock solutions were prepared for use as and when required and stored at −20° C. (maximum of 3 freeze-thaw cycles). The 20 mM parent stock solutions were stored frozen at −20° C.
The activity of compounds in protecting SH SY5Y cells from a toxic insult of 10 μM Aβ(1-42) was assessed by using inhibition of MTT reduction as a measure of cell viability. An aliquot (3 μl) of test compound [various concentrations] in DMSO is added to 294 μl of Opti-Mem (containing 2% FBS, 1% Pen/Strep, 1% L-Gln) {daughter plate}. The well is mixed thoroughly. Then an aliquot (3 μl) of Aβ(1-42) [2 mM] is added to the daughter plate wells and again mixed thoroughly. 50 μl is then aspirated and dispensed into wells containing 50 μl media+SH SY5Ycells (cells are also plated in Opti-Mein, at ˜30,000 cells/well/50 μl). Final concentrations of compound on cells range from [50 μM] to [˜15 nM] with a final concentration of Aβ(1-42) of [10 μM].
Cell plates are incubated for 24 h and then the MTT assay (Shearman, 1999). is performed. […] The plate was shaken and the absorbance was recorded at both 570 nm and 650 nm. ΔA values were calculated by subtracting absorbance at 650 nm from absorbance at 570 nm, to reduce non-specific background absorbance. ΔA values from equivalent experiments were averaged and % cell viability was determined as follows: […]

T1 sequence (P05067 672-713): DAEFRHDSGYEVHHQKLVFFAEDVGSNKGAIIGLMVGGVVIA

| Compound | IC50 (Aβ(1-42)) [µM] | IC50 (SH SY5Y cells; Homo sapiens, SH-SY5Y) [µM] | IC50 (SH SY5Y cells) [µM] |
| --- | --- | --- | --- |
| Oc1cccc(Nc2ncc(Nc3cccc(C(F)(F)F)c3)cn2)c1 [Example 4, 2-(3-Hydroxyphenylamino)-5-[3-(trifluoromethyl)phenylamino]-pyrimidine] | 13 |  |  |
| Oc1cccc(Nc2cnc(Nc3cccc(O)c3)nc2)c1 [Example 2, 2,5-Bis-(3-hydroxyphenylamino)pyrimidine] | 32 | 14 |  |
| CN(c1ccccc1)c1cnc(Nc2cccc(O)c2)nc1 [Example 11, 2-(3-Hydroxyphenylamino)-5-[phenyl(methyl)amino]pyrimidine] | 22 | 30 |  |
| Oc1cccc(Nc2ccc(Nc3cccc(O)c3)nn2)c1 [RS-0406, reference compound] |  |  | 40 |
| COc1cccc(Nc2cnc(Nc3ccc(Cl)c(Cl)c3)nc2)c1 [Example 10, 2-(3,4-Dichlorophenylamino)-5-(3-methoxyphenylamino)-pyrimidine] | 8.5 |  |  |
| Oc1cccc(Nc2cnc(Nc3cccc(C(F)(F)F)c3)nc2)c1 [Example 8, 2-(3-Trifluoromethylphenylamino)-5-(3-hydroxyphenylamino)-pyrimidine] | 5 |  |  |
